Reference: ChEMBL document CHEMBL1817560, “Selectivity of kinase inhibitor fragments” (J Med Chem, 2011)

Tests used:
[1] = target: Phosphatidylinositol 4,5-bisphosphate 3-kinase catalytic subunit alpha isoform (Homo sapiens) (UniProt P42336); assay: Inhibition of PI3Kalpha expressed in Escherichia coli or baculovirus-infected insect cells using gamma-[33P]ATP at 400 uM by scintillation proximity assay
[2] = target: Epidermal growth factor receptor (Homo sapiens) (UniProt P00533); assay: Inhibition of EGFR expressed in Escherichia coli or baculovirus-infected insect cells at 400 uM by TR-FRET assay
[3] = target: T1, Serine/threonine-protein kinase Sgk1 (Homo sapiens) (UniProt O00141); assay: Inhibition of SGK1 expressed in Escherichia coli or baculovirus-infected insect cells at 400 uM by IMAP assay
T1 sequence (whole entry): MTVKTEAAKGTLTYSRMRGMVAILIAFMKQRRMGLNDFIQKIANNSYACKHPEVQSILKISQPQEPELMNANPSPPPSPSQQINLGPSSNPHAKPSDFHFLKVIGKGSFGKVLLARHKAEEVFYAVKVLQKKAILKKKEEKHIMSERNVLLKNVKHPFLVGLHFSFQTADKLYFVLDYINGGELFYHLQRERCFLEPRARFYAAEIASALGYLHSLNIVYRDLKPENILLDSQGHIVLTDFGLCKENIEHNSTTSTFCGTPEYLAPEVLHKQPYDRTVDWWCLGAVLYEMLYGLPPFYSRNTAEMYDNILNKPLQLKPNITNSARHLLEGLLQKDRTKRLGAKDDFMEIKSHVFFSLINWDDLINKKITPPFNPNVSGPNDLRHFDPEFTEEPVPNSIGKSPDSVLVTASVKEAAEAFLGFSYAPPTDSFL

[4] = target: T2, Tyrosine-protein kinase ITK/TSK (Homo sapiens) (UniProt Q08881); assay: Inhibition of ITK expressed in Escherichia coli or baculovirus-infected insect cells at 667 uM by TR-FRET assay
T2 sequence (whole entry): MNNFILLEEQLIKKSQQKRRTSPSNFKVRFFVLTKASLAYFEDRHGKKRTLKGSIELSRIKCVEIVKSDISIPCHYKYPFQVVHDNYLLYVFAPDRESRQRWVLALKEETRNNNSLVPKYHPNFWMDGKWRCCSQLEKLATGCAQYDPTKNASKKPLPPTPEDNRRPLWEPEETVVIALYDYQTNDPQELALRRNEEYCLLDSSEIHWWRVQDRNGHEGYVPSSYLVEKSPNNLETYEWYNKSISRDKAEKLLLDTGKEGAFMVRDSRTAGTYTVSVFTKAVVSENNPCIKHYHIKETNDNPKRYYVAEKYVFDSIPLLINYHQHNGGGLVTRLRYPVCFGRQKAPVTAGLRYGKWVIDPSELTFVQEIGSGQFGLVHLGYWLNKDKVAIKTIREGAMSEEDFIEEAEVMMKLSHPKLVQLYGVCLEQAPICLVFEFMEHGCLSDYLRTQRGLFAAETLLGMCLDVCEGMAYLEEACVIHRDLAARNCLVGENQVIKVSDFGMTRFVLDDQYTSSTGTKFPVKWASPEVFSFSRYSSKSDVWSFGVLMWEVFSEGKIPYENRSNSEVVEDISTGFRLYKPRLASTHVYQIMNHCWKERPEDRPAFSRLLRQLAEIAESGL

[5] = target: T3, Mitogen-activated protein kinase kinase kinase 5 (Homo sapiens) (UniProt Q99683); assay: Inhibition of ASK1 expressed in Escherichia coli or baculovirus-infected insect cells at 667 uM by IMAP assay
T3 sequence (whole entry): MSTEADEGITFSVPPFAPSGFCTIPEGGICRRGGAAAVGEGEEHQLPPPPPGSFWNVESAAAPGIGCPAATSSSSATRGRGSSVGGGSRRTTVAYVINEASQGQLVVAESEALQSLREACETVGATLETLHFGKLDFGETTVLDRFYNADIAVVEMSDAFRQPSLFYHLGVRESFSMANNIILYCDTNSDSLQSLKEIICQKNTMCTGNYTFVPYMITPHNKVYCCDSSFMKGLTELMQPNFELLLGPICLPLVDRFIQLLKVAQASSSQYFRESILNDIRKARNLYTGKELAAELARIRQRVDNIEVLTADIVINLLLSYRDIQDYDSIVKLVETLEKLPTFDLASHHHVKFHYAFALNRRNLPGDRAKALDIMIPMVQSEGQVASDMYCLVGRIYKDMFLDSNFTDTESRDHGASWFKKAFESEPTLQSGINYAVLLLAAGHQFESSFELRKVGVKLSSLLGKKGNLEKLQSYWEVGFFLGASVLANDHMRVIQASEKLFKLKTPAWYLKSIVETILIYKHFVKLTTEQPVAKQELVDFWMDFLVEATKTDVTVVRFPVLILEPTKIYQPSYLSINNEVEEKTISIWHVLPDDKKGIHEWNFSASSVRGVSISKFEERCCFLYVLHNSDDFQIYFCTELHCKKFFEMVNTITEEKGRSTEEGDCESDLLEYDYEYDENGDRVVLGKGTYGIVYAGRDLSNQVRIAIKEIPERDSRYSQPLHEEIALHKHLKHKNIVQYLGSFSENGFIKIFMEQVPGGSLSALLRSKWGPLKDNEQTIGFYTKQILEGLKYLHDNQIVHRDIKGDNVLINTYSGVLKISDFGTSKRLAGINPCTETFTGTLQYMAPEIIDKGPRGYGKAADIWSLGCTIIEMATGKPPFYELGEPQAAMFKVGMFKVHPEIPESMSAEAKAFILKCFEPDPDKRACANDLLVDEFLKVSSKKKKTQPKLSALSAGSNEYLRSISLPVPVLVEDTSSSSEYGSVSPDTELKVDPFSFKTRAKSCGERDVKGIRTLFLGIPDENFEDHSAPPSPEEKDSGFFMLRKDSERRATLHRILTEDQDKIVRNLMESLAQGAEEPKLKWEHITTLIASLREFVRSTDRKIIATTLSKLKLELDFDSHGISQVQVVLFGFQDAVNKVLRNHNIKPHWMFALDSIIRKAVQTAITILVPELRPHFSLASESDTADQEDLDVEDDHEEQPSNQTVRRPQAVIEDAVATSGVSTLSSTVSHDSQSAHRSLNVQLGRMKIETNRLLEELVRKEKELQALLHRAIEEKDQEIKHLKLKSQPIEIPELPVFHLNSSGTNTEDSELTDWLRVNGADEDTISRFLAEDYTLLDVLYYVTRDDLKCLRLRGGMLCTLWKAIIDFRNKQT

[6] = target: Aurora kinase B (Homo sapiens) (UniProt Q96GD4); assay: Inhibition of AurB expressed in Escherichia coli or baculovirus-infected insect cells at 400 uM by IMAP assay
[7] = target: Serine/threonine-protein kinase B-raf (Homo sapiens) (UniProt P15056); assay: Inhibition of B-Raf expressed in Escherichia coli or baculovirus-infected insect cells using ATP as substrate at 400 uM by fluorescence polarization assay
[8] = target: Serine/threonine-protein kinase PAK 1 (Homo sapiens) (UniProt Q13153); assay: Inhibition of PAK1 expressed in Escherichia coli or baculovirus-infected insect cells at 400 uM by IMAP assay
Serine/threonine-protein kinase PAK 1 (Homo sapiens), sequence (Q13153 whole entry): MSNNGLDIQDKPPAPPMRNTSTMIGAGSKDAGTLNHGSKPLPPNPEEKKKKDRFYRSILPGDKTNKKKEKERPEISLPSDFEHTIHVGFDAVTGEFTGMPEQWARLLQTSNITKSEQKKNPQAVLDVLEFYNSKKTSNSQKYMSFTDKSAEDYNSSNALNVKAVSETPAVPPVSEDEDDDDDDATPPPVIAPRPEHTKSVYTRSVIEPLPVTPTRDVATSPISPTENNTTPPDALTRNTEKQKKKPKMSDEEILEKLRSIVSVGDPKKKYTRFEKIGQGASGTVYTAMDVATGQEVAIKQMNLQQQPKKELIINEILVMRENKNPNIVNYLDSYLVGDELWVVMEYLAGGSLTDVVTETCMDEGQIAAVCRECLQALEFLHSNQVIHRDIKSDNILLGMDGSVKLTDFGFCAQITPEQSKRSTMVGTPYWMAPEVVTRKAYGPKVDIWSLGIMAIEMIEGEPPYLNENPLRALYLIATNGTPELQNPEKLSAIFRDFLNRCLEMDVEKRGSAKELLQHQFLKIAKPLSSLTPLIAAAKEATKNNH

Serine/threonine-protein kinase B-raf (Homo sapiens), sequence (P15056 whole entry): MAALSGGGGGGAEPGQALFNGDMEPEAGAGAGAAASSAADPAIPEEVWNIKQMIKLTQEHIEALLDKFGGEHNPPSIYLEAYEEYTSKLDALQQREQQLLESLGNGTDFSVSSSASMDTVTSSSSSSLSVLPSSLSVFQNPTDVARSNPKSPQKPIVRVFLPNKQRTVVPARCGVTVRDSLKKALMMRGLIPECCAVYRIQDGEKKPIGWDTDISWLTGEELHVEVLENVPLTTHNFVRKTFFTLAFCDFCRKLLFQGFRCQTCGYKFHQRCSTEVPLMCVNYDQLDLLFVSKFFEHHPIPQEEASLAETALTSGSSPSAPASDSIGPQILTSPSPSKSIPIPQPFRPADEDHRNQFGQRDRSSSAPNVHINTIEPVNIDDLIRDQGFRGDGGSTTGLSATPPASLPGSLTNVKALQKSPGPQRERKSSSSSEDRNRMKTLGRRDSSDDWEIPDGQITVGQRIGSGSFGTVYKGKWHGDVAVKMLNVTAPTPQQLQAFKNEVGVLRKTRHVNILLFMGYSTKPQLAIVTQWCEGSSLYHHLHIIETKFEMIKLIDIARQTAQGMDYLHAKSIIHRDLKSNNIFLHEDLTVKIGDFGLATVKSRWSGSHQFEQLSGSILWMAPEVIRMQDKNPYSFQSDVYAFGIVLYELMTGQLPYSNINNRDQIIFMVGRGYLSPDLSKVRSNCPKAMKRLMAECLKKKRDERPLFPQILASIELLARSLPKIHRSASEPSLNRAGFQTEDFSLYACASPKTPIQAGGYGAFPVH
Epidermal growth factor receptor (Homo sapiens), sequence (P00533 whole entry): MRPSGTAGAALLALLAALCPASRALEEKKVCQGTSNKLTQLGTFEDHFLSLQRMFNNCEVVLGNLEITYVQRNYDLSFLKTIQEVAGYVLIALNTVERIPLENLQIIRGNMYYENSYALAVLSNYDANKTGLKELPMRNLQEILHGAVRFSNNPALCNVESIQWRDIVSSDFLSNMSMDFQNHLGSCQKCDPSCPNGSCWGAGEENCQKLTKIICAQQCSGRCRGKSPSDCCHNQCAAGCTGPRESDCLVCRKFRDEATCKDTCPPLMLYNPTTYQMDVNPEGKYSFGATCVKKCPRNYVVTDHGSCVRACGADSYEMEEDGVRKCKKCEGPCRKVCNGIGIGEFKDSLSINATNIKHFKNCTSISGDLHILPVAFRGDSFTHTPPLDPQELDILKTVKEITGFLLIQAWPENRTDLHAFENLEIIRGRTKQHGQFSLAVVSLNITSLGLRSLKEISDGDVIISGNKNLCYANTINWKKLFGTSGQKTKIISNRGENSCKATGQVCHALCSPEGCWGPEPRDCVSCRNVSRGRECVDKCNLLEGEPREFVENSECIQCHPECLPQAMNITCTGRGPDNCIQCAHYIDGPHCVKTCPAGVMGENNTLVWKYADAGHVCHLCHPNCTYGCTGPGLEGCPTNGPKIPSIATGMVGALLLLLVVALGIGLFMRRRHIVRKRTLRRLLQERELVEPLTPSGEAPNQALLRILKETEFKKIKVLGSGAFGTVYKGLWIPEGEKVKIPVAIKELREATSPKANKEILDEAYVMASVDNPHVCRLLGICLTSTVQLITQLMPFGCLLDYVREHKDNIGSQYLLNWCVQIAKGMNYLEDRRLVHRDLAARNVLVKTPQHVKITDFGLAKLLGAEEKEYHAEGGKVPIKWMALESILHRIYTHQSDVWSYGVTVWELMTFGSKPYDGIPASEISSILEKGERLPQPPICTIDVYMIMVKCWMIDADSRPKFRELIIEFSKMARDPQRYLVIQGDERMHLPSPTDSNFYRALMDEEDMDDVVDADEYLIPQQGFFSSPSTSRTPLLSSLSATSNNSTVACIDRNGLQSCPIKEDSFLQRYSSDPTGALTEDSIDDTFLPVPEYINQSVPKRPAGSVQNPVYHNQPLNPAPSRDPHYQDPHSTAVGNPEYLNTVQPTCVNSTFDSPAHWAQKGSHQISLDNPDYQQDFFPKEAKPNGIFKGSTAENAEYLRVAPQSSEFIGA
Aurora kinase B (Homo sapiens), sequence (Q96GD4 whole entry): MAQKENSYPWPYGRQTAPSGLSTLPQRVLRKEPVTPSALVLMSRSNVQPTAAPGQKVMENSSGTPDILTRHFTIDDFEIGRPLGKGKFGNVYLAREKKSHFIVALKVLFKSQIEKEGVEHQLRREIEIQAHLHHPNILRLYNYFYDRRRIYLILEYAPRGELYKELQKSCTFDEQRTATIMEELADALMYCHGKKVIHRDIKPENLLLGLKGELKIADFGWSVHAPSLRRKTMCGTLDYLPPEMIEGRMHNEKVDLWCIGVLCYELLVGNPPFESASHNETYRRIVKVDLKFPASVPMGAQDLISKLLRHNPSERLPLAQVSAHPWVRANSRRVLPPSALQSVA
Phosphatidylinositol 4,5-bisphosphate 3-kinase catalytic subunit alpha isoform (Homo sapiens), sequence (P42336 whole entry, canonical isoform): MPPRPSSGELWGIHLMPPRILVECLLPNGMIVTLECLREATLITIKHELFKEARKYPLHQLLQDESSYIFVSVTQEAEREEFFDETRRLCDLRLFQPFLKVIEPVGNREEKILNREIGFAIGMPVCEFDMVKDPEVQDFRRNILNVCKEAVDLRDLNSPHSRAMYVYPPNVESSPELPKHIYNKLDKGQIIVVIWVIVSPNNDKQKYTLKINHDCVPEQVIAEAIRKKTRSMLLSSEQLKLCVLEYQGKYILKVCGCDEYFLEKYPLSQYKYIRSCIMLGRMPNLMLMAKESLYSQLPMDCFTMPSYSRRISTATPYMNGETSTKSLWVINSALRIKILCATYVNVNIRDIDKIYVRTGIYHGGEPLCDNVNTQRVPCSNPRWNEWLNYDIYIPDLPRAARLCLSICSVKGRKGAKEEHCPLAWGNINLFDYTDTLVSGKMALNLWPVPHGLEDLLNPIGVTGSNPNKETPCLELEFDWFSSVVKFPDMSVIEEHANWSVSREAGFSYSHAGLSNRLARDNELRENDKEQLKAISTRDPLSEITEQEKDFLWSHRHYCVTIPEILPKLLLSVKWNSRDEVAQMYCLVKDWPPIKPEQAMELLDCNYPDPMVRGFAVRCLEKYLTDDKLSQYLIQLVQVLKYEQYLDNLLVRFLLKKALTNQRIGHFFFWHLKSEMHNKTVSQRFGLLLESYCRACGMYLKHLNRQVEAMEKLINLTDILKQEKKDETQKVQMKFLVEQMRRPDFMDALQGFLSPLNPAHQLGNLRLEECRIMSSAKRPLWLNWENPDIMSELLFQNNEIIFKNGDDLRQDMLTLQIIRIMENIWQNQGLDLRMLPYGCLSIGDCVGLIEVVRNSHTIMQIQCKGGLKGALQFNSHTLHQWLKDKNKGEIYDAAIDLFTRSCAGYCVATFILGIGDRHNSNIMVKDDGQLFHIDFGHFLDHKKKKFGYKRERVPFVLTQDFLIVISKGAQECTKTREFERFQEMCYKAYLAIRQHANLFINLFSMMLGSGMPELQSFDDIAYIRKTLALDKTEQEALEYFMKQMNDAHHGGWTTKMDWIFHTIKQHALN

Row | Structure (SMILES) | inhibition [1] [%] | inhibition [2] [%] | inhibition [3] [%] | inhibition [4] [%] | inhibition [5] [%] | inhibition [6] [%] | inhibition [7] [%] | inhibition [8] [%]
1 | Nc1ncccc1OCc1ccccc1 | 59 | 9 | 52 | 12 | 39 | 77 | 100 | 
2 | CC(C)(C)c1cc(NC(=O)Nc2ccccc2)no1 | 40 | 4 | 10 | 0 | 3 | 31 |  | 
3 | Nc1n[nH]c2ncccc12 | 29 | 18 | 63 | 39 | 52 | 100 |  | 
4 | Cc1ccc(C(=O)NC2CC2)cc1F | 16 | 5 | 17 | 14 | 9 | 15 |  | 
5 | c1ccc2[nH]ncc2c1 [INDAZOLE] | 6 | 0 | 75 | 26 | 31 | 81 | 0 | 12
6 | Cc1ccc(NC(=O)Nc2cccc(C(F)(F)F)c2)cc1 | 4 | 0 | 8 | 0 | 9 | 12 |  | 
7 | Cc1ccc(NC(=O)Nc2cc(C(C)(C)C)nn2-c2ccccc2)cc1 | 27 | 0 | 7 | 30 | 13 | 0 |  | 
8 | Nc1[nH]cnc2ncnc1-2 | 45 | 11 | 76 | 87 | 88 | 99 |  | 
9 | c1cnc2[nH]ccc2c1 | 16 | 0 | 62 | 44 |  | 94 | 19 | 
10 | c1ccc(-c2cnc3nccnn23)cc1 | 46 | 8 | 0 | 6 | 1 | 0 |  | 0
11 | c1n[nH]c2c1CCCC2 | 24 | 25 | 27 | 24 |  | 22 |  | 0
12 | O=C(Nc1ccccc1)Nc1ccccc1 | 11 | 0 | 15 | 0 |  | 30 |  | 
13 | c1ccc(Nc2ccccc2)cc1 | 20 | 5 | 3 | 41 | 2 |  |  | 14
14 | c1ccc(Nc2ncccn2)cc1 | 14 | 0 | 21 | 69 | 10 | 97 | 10 | 19
15 | Nc1ccc2ncc(-c3ccccc3)n2n1 | 86 | 36 | 90 | 94 | 77 | 97 |  | 38
16 | Nc1[nH]nc2ccccc12 | 22 | 0 | 97 | 41 | 80 | 98 |  | 17
17 | O=C(Nc1ccccc1)Nc1cccc(C(F)(F)F)c1 | 10 | 4 | 8 | 0 | 0 | 12 |  | 
